Assay results published in patent US11149031B2, “Substituted N-(3-fluoropropyl)-pyrrolidine compounds, processes for their preparation and therapeutic uses thereof” (SANOFI, priority 2016, dated 2021).
Where two headings read alike, the source gives them in different places.

Assays:
[1] = target: His6-ERα298-554 D538G mutant (ERα ligand-binding domain) (Homo sapiens (Human), UniProt P03372, D538G); assay: Test A: biochemical antagonist activity, LanthaScreen TR-FRET ERα coactivator assay, D538G mutant; details: read-out: Antagonism D538G IC50
Outline: (§1)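 Compounds were added to receptor LBD (0.5 nM), terbium-labelled His6 antibody (0.5 nM), PGC1a coactivator peptide (250 nM) and estradiol at 3 nM or 10 nM. After incubating overnight at room temperature, the 520:495 nm ratio gave IC50 values by four-parameter logistic regression.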

[2] = system: MCF7 cells expressing mutant estrogen receptor Asp 538 Gly; assay: Test B: cell proliferation/viability assay (CellTiter-Glo) on MCF7 Asp 538 Gly mutant; assay type: cell-based; details: MCF7 cells expressing ER Asp 538 Gly mutant, 7 days of compound exposure, read-out: proliferation MCF7 D538G IC50
Outline: (§2)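 Mutant lines are MCF7 transfected with ER mutants and selected for estradiol-independent growth. Cells in phenol red-free MEM with 5% charcoal-stripped FBS received 9-point 1:5 dilutions (3-0.000001 μM) for 7 days; CellTiter-Glo luminescence, % viability relative to untreated after background subtraction.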

[3] = target: ERα in MCF7 cells (Homo sapiens (Human), UniProt P03372); assay: Test C: estrogen receptor degradation activity, ERα in cell western assay in MCF7 cells; assay type: cell-based; details: for DC50: 4 hours post compound addition, ERα in cell western, read-out: Degradation IC50; for % Degradation at 3 μM: 4 hours, relative to fulvestrant
Outline: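 MCF7 cells in phenol-red-free medium with 5% charcoal-stripped FBS received compound (9-point 1:5, 3-0.000018 μM) for 4 h, then were fixed. ERα immunostained (Alexa 488) and normalised to DNA (Syto-64), read as integrated fluorescence on an Acumen scanner.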

[4] = target: His6-ERα298-554 Y537S mutant (ERα ligand-binding domain) (Homo sapiens (Human), UniProt P03372, Y537S); assay: Test A: biochemical antagonist activity, LanthaScreen TR-FRET ERα coactivator assay, Y537S mutant; details: read-out: Antagonism Y537S IC50
Outline: as §1

[5] = target: His6-ERα298-554 WT (ERα ligand-binding domain) (Homo sapiens (Human), UniProt P03372); assay: Test A: biochemical antagonist activity, LanthaScreen TR-FRET ERα coactivator assay, WT; details: read-out: Antagonism WT IC50
Outline: as §1

[6] = system: MCF7 cells (breast tumor cells) WT; assay: Test B: cell proliferation/viability assay (CellTiter-Glo) on MCF7 WT; assay type: cell-based; details: 7 days of compound exposure
Outline: as §2

[7] = system: MCF7 cells expressing mutant estrogen receptor Tyr 537 Ser; assay: Test B: cell proliferation/viability assay (CellTiter-Glo) on MCF7 Tyr 537 Ser mutant; assay type: cell-based; details: MCF7 cells expressing ER Tyr 537 Ser mutant, 7 days of compound exposure, read-out: proliferation MCF7 Y537S IC50
Outline: as §2

[8] = asterisk (*): protocol using 10 nM estradiol

Chain of His6-ERα298-554 D538G mutant (ERα ligand-binding domain) (P03372 298-554 D538G): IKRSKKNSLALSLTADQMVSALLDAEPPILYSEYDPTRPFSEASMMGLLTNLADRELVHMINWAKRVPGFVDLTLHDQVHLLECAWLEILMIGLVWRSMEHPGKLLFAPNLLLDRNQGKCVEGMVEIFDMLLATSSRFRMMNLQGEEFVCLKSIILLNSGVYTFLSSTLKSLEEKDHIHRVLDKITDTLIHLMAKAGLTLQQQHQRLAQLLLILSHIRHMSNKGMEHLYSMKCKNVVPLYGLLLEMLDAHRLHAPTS
Chain of His6-ERα298-554 Y537S mutant (ERα ligand-binding domain) (P03372 298-554 Y537S): as the sequence (P03372 298-554 D538G) above, with Y240S, G241D counted along it
Chain of ERα in MCF7 cells (P03372 whole entry): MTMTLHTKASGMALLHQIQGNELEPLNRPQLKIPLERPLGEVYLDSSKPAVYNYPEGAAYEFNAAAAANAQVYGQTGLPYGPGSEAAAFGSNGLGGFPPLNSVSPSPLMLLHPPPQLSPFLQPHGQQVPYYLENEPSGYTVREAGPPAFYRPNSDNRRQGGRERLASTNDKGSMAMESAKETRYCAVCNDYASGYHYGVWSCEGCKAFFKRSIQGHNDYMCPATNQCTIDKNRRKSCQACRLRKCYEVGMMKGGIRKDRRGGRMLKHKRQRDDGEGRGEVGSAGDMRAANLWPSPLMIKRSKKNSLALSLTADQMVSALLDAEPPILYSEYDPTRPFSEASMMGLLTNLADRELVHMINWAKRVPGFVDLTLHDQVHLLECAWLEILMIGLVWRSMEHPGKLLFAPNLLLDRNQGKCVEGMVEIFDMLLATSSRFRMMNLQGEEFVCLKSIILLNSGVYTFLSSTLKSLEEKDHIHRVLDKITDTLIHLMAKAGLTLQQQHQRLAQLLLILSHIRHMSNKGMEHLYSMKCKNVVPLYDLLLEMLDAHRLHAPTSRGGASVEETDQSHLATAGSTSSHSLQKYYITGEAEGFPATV
Chain of His6-ERα298-554 WT (ERα ligand-binding domain) (P03372 298-554): as the sequence (P03372 298-554 D538G) above, with G241D counted along it

| Structure (SMILES) | IC50 [1, 8] [nM] | IC50 ([2]; Homo sapiens, MCF7, 168 h) [nM] | DC50 [3] [nM] | % Degradation at 3 μM [3] [%] | IC50 [4, 8] [nM] | IC50 [5, 8] [nM] | IC50 ([6]; Homo sapiens, MCF7, 168 h) [nM] | IC50 ([7]; Homo sapiens, MCF7, 168 h) [nM] | IC50 ([1]; protocol with 3 nM estradiol) [nM] | IC50 ([4]; protocol with 3 nM estradiol) [nM] | IC50 ([5]; protocol with 3 nM estradiol) [nM] | IC50 [2] [nM] | IC50 [6] [nM] | IC50 [7] [nM] |
| --- | --- | --- | --- | --- | --- | --- | --- | --- | --- | --- | --- | --- | --- | --- |
| Oc1ccc2c(c1)SCCC(c1ccc3c(c1)OC(F)(F)O3)=C2c1ccc(O[C@H]2CCN(CCCF)C2)cc1 [Example 193, 4-(2,2-difluoro-1,3-benzodioxol-5-yl)-5-[4-[(3S)-1-(3-fluoropropyl)pyrrolidin-3-yl]oxyphenyl]-2,3-dihydro-1-benzothiepin-8-ol] | 25 | 0.5 | 0.2 | 91 | 20 | 1 | 0.3 | 5 | – | – | – | – | – | – |
| Oc1ccc2c(c1)OCCC(c1ccc(OCCN3CCCC3)cc1)=C2c1ccc(O[C@H]2CCN(CCCF)C2)cc1 [Example 147, 5-[4-[(3S)-1-(3-fluoropropyl)pyrrolidin-3-yl]oxyphenyl]-4-[4-(2-pyrrolidin-1-ylethoxy)phenyl]-2,3-dihydro-1-benzoxepin-8-ol] | > 4000 | 90 | 49 | 77 | 3810 | 390 | 52 | > 999 | – | – | – | – | – | – |
| Oc1ccc2c(c1)SCC(c1ccc(OC(F)F)cc1F)=C2c1ccc(O[C@H]2CCN(CCCF)C2)cc1 [Example 35, 3-[4-(difluoromethoxy)-2-fluoro-phenyl]-4-[4-[(3S)-1-(3-fluoropropyl)pyrrolidin-3-yl]oxyphenyl]-2H-thiochromen-7-ol] | 421 | 0.3 | 1 | 89 | 220 | 16 | 0.2 | 2 | – | – | – | – | – | – |
| CONC(=O)c1cc(C2=C(c3ccc(O[C@H]4CCN(CCCF)C4)cc3)c3ccc(O)cc3SCC2)ccc1F [Example 199, 2-fluoro-5-[5-[4-[(3S)-1-(3-fluoropropyl)pyrrolidin-3-yl]oxyphenyl]-8-hydroxy-2,3-dihydro-1-benzothiepin-4-yl]-N-methoxy-benzamide] | 456 | 0.2 | 0.4 | 94 | 316 | 21 | 0.2 | 4 | – | – | – | – | – | – |
| Cc1c(Cl)cccc1C1=C(c2ccc(O[C@H]3CCN(CCCF)C3)cc2)c2ccc(O)c(F)c2OCC1 [Example 105, 4-(3-chloro-2-methyl-phenyl)-9-fluoro-5-[4-[(3S)-1-(3-fluoropropyl)pyrrolidin-3-yl]oxyphenyl]-2,3-dihydro-1-benzoxepin-8-ol] | – | 2 | 0.2 | 91 | – | – | 0.5 | 11 | 38 | 23 | 5 | – | – | – |
| Cc1ccc(C2=C(c3ccc(O[C@H]4CCN(CCCF)C4)cc3)c3ccc(C(=O)O)cc3SCC2)c(F)c1 [Example 210, 4-(2-fluoro-4-methyl-phenyl)-5-[4-[(3S)-1-(3-fluoropropyl)pyrrolidin-3-yl]oxyphenyl]-2,3-dihydro-1-benzothiepine-8-carboxylic acid] | 2220 | 1 | 2 | 89 | 1330 | 103 | 0.8 | 15 | – | – | – | – | – | – |
| Oc1ccc2c(c1)SCC(c1ccc(OC3COC3)cc1)=C2c1ccc(O[C@H]2CCN(CCCF)C2)cc1 [Example 44, 4-[4-[(3S)-1-(3-fluoropropyl)pyrrolidin-3-yl]oxyphenyl]-3-[4-(oxetan-3-yloxy)phenyl]-2H-thiochromen-7-ol] | 2930 | > 999 | 8 | 89 | 1820 | 172 | > 999 | > 999 | – | – | – | – | – | – |
| [2H]C([2H])([2H])Oc1ccc(C2=C(c3ccc(O[C@H]4CCN(CCCF)C4)cc3)c3ccc(O)cc3SC2)c(F)c1 [Example 34, 4-[4-[(3S)-1-(3-fluoropropyl)pyrrolidin-3-yl]oxyphenyl]-3-[2-fluoro-4-(trideuteriomethoxy)phenyl]-2H-thiochromen-7-ol] | 83 | 0.5 | 0.4 | 85 | 46 | 4 | 0.5 | 4 | – | – | – | – | – | – |
| Oc1ccc2c(c1)SCCC(c1ccc(OC(F)(F)F)cc1F)=C2c1ccc(O[C@H]2CCN(CCCF)C2)cc1 [Example 212, 5-[4-[(3S)-1-(3-fluoropropyl)pyrrolidin-3-yl]oxyphenyl]-4-[2-fluoro-4-(trifluoromethoxy)phenyl]-2,3-dihydro-1-benzothiepin-8-ol] | 800 | 0.5 | 2 | 90 | 412 | 34 | 0.4 | 3 | – | – | – | – | – | – |
| [2H]C([2H])([2H])Oc1ccc(C2=C(c3ccc(O[C@H]4CCN(CCCF)C4)cc3)c3ccc(O)cc3SCC2)c(F)c1 [Example 209, 5-[4-[(3S)-1-(3-fluoropropyl)pyrrolidin-3-yl]oxyphenyl]-4-[2-fluoro-4-(trideuteriomethoxy)phenyl]-2,3-dihydro-1-benzothiepin-8-ol] | 35 | 0.7 | 0.4 | 92 | 20 | 2 | 0.3 | 4 | – | – | – | – | – | – |
| Oc1ccc2c(c1)SCC(c1ccc(OC(F)(F)F)cc1F)=C2c1ccc(O[C@H]2CCN(CCCF)C2)cc1 [Example 37, 4-[4-[(3S)-1-(3-fluoropropyl)pyrrolidin-3-yl]oxyphenyl]-3-[2-fluoro-4-(trifluoromethoxy)phenyl]-2H-thiochromen-7-ol] | – | 0.6 | 3 | 83 | – | – | 0.6 | 4 | 745 | 475 | 41 | – | – | – |
| Oc1ccc2c(c1)OCCC(c1ccc3occc3c1)=C2c1ccc(O[C@H]2CCN(CCCF)C2)cc1 [Example 120, 4-(benzofuran-5-yl)-5-[4-[(3S)-1-(3-fluoropropyl)pyrrolidin-3-yl]oxyphenyl]-2,3-dihydro-1-benzoxepin-8-ol] | – | 2 | 0.7 | 91 | – | – | 1 | 10 | 7 | 4 | 2 | – | – | – |
| CC1(C)Cc2cc(C3=C(c4ccc(O[C@H]5CCN(CCCF)C5)nc4)c4ccc(O)cc4CCC3)ccc2N1 [Example 242, 6-(2,2-dimethylindolin-5-yl)-5-[6-[(3S)-1-(3-fluoropropyl)pyrrolidin-3-yl]oxy-3-pyridyl]-8,9-dihydro-7H-benzo[7]annulen-2-ol] | 9 | 2 | 0.8 | 83 | 7 | 1 | 0.7 | 11 | – | – | – | – | – | – |
| Oc1ccc2c(c1)SCC(c1ccc(SC(F)(F)F)cc1)=C2c1ccc(O[C@H]2CCN(CCCF)C2)cc1 [Example 66, 4-[4-[(3S)-1-(3-fluoropropyl)pyrrolidin-3-yl]oxyphenyl]-3-[4-(trifluoromethylsulfanyl)phenyl]-2H-thiochromen-7-ol] | – | 2 | 0.2 | 84 | – | – | 2 | 8 | 1800 | 362 | 59 | – | – | – |
| CCOc1cc(F)c(C2=C(c3ccc(O[C@H]4CCN(CCCF)C4)cc3)c3ccc(O)cc3SCC2)cc1F [Example 220, 4-(4-ethoxy-2,5-difluoro-phenyl)-5-[4-[(3S)-1-(3-fluoropropyl)pyrrolidin-3-yl]oxyphenyl]-2,3-dihydro-1-benzothiepin-8-ol] | 164 | 0.5 | 0.2 | 89 | 84 | 8 | 0.4 | 5 | – | – | – | – | – | – |
| CC1Cc2c([nH]c3ccccc23)C(c2c(F)cc(O[C@H]3CCN(CCCF)C3)cc2F)N1CC(C)(C)F (single isomer, unassigned) [Example 257] | > 4000 | – | 37 | 87 | > 4000 | 3310 | – | – | – | – | – | 85 | 18 | 272 |
